# Reference: US20060154323A1, “Method for obtaining dynamic and structural data pertaining to proteins and protein/ligand complexes” (ProSpect Pharma, priority 2002, published 2006)
# Key:
# Mouse Urinary Protein = target: T1, Mouse Urinary Protein (Mus musculus, UniProt P11588); test: 13C NMR relaxation (T1, T2) of valine 13CHD2-labeled MUP in absence and presence of ligand; settings: for T1, Change / T2, Change: Protein vs Bound Protein; for T1, Bound Protein / T2, Bound Protein: 298 K;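 for T1, Bound Protein: unit milliseconds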;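 for T2, Bound Protein: unit milliseconds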
# T1 construct: made in house; host or cells: E. coli M15 cells with vector pqe30 MUP
# T1 sequence (P11588 19-180): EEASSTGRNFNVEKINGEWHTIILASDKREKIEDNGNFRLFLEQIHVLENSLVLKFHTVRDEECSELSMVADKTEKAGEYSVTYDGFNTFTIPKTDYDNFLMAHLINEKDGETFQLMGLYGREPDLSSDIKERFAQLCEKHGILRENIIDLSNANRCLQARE
# Procedure: A 15 mg sample of L-valine-α-D-^12CD(^13CHD2)2 labeled MUP was dissolved in 650 μL phosphate buffered saline (10 mM potassium phosphate; 200 mM sodium chloride), to which was added 50 μL deuterium oxide. ^13C Relaxation rates (R2 and R1) of ^13CHD2 groups were determined using pulse sequences as described in Ishima et al., J. Am. Chem. Soc. 121:11589-11590 (1999). Spectral parameters were as follows: spectral width in the ^13C dimension, 900 Hz; spectral width in the ^1H dimension, 5200 Hz; number of real data points in the ^13C dimension, 128; number of real points in the ^1H dimension, 1408; number of transients per t1 increment, 8; probe temperature, 298 K. Prior to two-dimensional Fourier transformation, free induction decays were apodized with cosine-bell windowing functions according to known methods.
# The NMR analysis was then repeated following addition of the small molecule ligand 1 μL of isobutyl pyrazine or 1 μL of isopropyl pyrazine to separate solutions of MUP. The data shown below in Tables I and II and in FIG. 8 were obtained, clearly showing the changes in T1 and T2 values obtained on addition of these small molecule ligands.
# MUP [1] = target: T2, MUP (Mus musculus, UniProt P11588); test: 13C-1H HSQC spectra of valine-enriched MUP complexes; settings: 13C-1H HSQC of complexes with valine-enriched MUP
# T2 construct: made in house; host or cells: E. coli M15 cells with vector pqe30 MUP
# T2 sequence (P11588 19-180): T1 sequence (P11588 19-180)
# Major Urinary Protein = target: T3, Major Urinary Protein (Mus musculus, UniProt P11588); test: S2axis order parameters of valine methyl groups from 600 MHz 13C R1/R2 relaxation of valine-enriched MUP and its complexes; settings: for S^2axis: MUP-ligand complex, 600 MHz, 30° C., pH 7.0
# T3 construct: made in house; host or cells: E. coli M15 cells with vector pqe30 MUP
# T3 sequence (P11588 19-180): T1 sequence (P11588 19-180)
# Procedure: Samples of [^13C^γ1,^γ2HD2]-U-^2H valine enriched MUP both alone and complexed with 2-methoxy-3-isopropylpyrazine and 2-methoxy-3-isobutylpyrazine were prepared from a single sample at pH 7.0 and a protein concentration of 1 mM. A further sample of methyl-^13C, ^2H enriched MUP was prepared at pH 7.0 and a protein concentration of 0.5 mM. Longitudinal (R1) and transverse (R2) ^13C relaxation rates were determined essentially as described by Ishima et al., J. Am. Chem. Soc. 121:11589-11590, 1999. All spectra were recorded at a proton frequency of 600 MHz and a probe temperature of 30° C. R1 rates were determined with relaxation delay times of 16, 64, 128, 240, 400, 720, 1120, 1600, 2240 and 2880 milliseconds. R2 rates were determined with relaxation delay times of 16, 32, 48, 64, 96, 160, 192, 240 and 288 milliseconds, and an effective field strength of 2 kHz. Relaxation data were fit to a single exponential decay function I=I0exp(−tR), where I0 is the initial resonance intensity, t is the relaxation delay time and R is the relaxation rate (R1 or R2). Relaxation data were fitted to the Lipari-Szabo model-free spectral density of the form: J(ω)=S^2τm/(1+ω^2τ^2m)+(1−S^2)τi/(1+ω^2τi^2), where τi^−1=τM^−1+τe^−1, τM is the overall molecular tumbling correlation time and τe is the effective internal correlation time. See Lipari and Szabo, J. Am. Chem. Soc. 104:4546-4559, 1982. This equation is valid for fast internal motions, τe<<τM, under which conditions the order parameter for methyl CH dipolar relaxation is given by S^2=Saxis^2[P2(cos θH]^2. Saxis^2 is the order parameter of the methyl rotation axis and θH is the angle made by the axis and the CH bond vector. A global rotational correlation time of […] was used for these calculations, according to the previously reported value. Zidek et al., Nature Str. Biol. 6:1118-1121, 1999. Although the valine residues were perdeuterated at non-methyl positions, the protein was otherwise protonated, and dipolar relaxation due to these “external” protons is not negligible for ^13C relaxation. Thus, by analogy with the work of Ishima et al. J. Am. Chem. Soc. 123:6164-6171, 2001, the contribution of these external protons to ^13C R2 values was estimated at 25% from the X-ray coordinates of MUP. Consequently, measured ^13C R^2 rates were multiplied by 0.75 to account for these external dipolar relaxation processes.
# MUP [2] = target: T2, MUP; test: Binding of small hydrophobic ligands to MUP (Kd)
# [3] = valine methyl 59.HG1 (first line)
# [4] = valine methyl 59.HG1 (second line)
structure (smiles),measurement,setting,value
COc1nccnc1C(C)C [2-methoxy-3-isopropylpyrazine],"T1, Change",Mouse Urinary Protein; 12.HG1,−8.387 milliseconds
same,"T2, Change",Mouse Urinary Protein; 12.HG1,−8.329 milliseconds
same,"T1, Change",Mouse Urinary Protein; 12.HG2,−40.959 milliseconds
same,"T2, Change",Mouse Urinary Protein; 12.HG2,−9.198 milliseconds
same,"T1, Change",Mouse Urinary Protein; 47.HG1,2.421 milliseconds
same,"T2, Change",Mouse Urinary Protein; 47.HG1,−13.342 milliseconds
same,"T1, Change",Mouse Urinary Protein; 47.HG2,−76.984 milliseconds
same,"T2, Change",Mouse Urinary Protein; 47.HG2,−4.561 milliseconds
same,"T1, Change",Mouse Urinary Protein; 53.HG1,−50.272 milliseconds
same,"T2, Change",Mouse Urinary Protein; 53.HG1,−14.174 milliseconds
same,"T1, Change",Mouse Urinary Protein; 53.HG2,8.962 milliseconds
same,"T2, Change",Mouse Urinary Protein; 53.HG2,−7.866 milliseconds
same,"T1, Change",Mouse Urinary Protein; 59.HG1 (first line),−91.665 milliseconds
same,"T2, Change",Mouse Urinary Protein; 59.HG1 (first line),−16.574 milliseconds
same,"T1, Change",Mouse Urinary Protein; 59.HG1 (second line),−49.656 milliseconds
same,"T2, Change",Mouse Urinary Protein; 59.HG1 (second line),−6.181 milliseconds
same,"T1, Change",Mouse Urinary Protein; 70.HG1,209.318 milliseconds
same,"T2, Change",Mouse Urinary Protein; 70.HG1,−41.741 milliseconds
same,"T1, Change",Mouse Urinary Protein; 70.HG2,86.431 milliseconds
same,"T2, Change",Mouse Urinary Protein; 70.HG2,11.930 milliseconds
same,"T1, Change",Mouse Urinary Protein; 82.HG1,−10.201 milliseconds
same,"T2, Change",Mouse Urinary Protein; 82.HG1,10.857 milliseconds
same,"T1, Change",Mouse Urinary Protein; 82.HG2,0.991 milliseconds
same,"T2, Change",Mouse Urinary Protein; 82.HG2,19.924 milliseconds
same,contribution of valine side-chains to the entropy of binding,Mouse Urinary Protein; from relaxation data in the presence of ligand,do not contribute significantly
same,"T1, Bound Protein",Mouse Urinary Protein; valine methyl 12.HG1,1733.309 milliseconds
same,"T2, Bound Protein",Mouse Urinary Protein; valine methyl 12.HG1,161.437 milliseconds
same,"T1, Bound Protein",Mouse Urinary Protein; valine methyl 12.HG2,1509.370 milliseconds
same,"T2, Bound Protein",Mouse Urinary Protein; valine methyl 12.HG2,192.512 milliseconds
same,"T1, Bound Protein",Mouse Urinary Protein; valine methyl 47.HG1,1626.298 milliseconds
same,"T2, Bound Protein",Mouse Urinary Protein; valine methyl 47.HG1,168.574 milliseconds
same,"T1, Bound Protein",Mouse Urinary Protein; valine methyl 47.HG2,1067.605 milliseconds
same,"T2, Bound Protein",Mouse Urinary Protein; valine methyl 47.HG2,155.315 milliseconds
same,"T1, Bound Protein",Mouse Urinary Protein; valine methyl 53.HG1,2283.543 milliseconds
same,"T2, Bound Protein",Mouse Urinary Protein; valine methyl 53.HG1,177.873 milliseconds
same,"T1, Bound Protein",Mouse Urinary Protein; valine methyl 53.HG2,1355.764 milliseconds
same,"T2, Bound Protein",Mouse Urinary Protein; valine methyl 53.HG2,158.149 milliseconds
same,"T1, Bound Protein",Mouse Urinary Protein; [3],1374.428 milliseconds
same,"T2, Bound Protein",Mouse Urinary Protein; [3],195.222 milliseconds
same,"T1, Bound Protein",Mouse Urinary Protein; [4],1572.793 milliseconds
same,"T2, Bound Protein",Mouse Urinary Protein; [4],153.897 milliseconds
same,"T1, Bound Protein",Mouse Urinary Protein; valine methyl 70.HG1,1872.254 milliseconds
same,"T2, Bound Protein",Mouse Urinary Protein; valine methyl 70.HG1,162.943 milliseconds
same,"T1, Bound Protein",Mouse Urinary Protein; valine methyl 70.HG2,1077.097 milliseconds
same,"T2, Bound Protein",Mouse Urinary Protein; valine methyl 70.HG2,150.103 milliseconds
same,"T1, Bound Protein",Mouse Urinary Protein; valine methyl 82.HG1,925.102 milliseconds
same,"T2, Bound Protein",Mouse Urinary Protein; valine methyl 82.HG1,213.526 milliseconds
same,"T1, Bound Protein",Mouse Urinary Protein; valine methyl 82.HG2,668.810 milliseconds
same,"T2, Bound Protein",Mouse Urinary Protein; valine methyl 82.HG2,203.529 milliseconds
same,shift perturbations of Val 82 γ1 and γ2 correlations,MUP [1],Significant shift perturbations
same,changes in Saxis^2 of the six valine residues in MUP upon binding,Major Urinary Protein,only minor changes
same,S^2axis,Major Urinary Protein; Val-12 C^γ1,0.90
same,S^2axis,Major Urinary Protein; Val-12 C^γ2,0.69
same,S^2axis,Major Urinary Protein; Val-47 C^γ1,0.84
same,S^2axis,Major Urinary Protein; Val-47 C^γ2,0.90
same,S^2axis,Major Urinary Protein; Val-53 C^γ1,0.80
same,S^2axis,Major Urinary Protein; Val-53 C^γ2,0.85
same,S^2axis,Major Urinary Protein; Val-59 C^γ1,0.68
same,S^2axis,Major Urinary Protein; Val-59 C^γ2,0.86
same,S^2axis,Major Urinary Protein; Val-70 C^γ1,0.85
same,S^2axis,Major Urinary Protein; Val-70 C^γ2,0.77
same,S^2axis,Major Urinary Protein; Val-82 C^γ1,0.50
same,S^2axis,Major Urinary Protein; Val-82 C^γ2,0.48
same,contribution of valine side-chains to the entropy of binding,"Major Urinary Protein; from computations of Saxis^2 values, free protein and complexes",do not contribute significantly
same,Kd,MUP [2],560 nM
